According to PMC7414031, “Correlation between hemolytic activity, cytotoxicity and systemic in vivo toxicity of synthetic antimicrobial peptides” (Scientific Reports, 2020):
Values after ≈ are worked out from the molar mass of the structure shown. Peptide text beside a SMILES is read from it.

How the values were obtained:
HepG2 cells = assay type: cell-based, human; details: 1 h
Method: (§1) An immortalised human keratinocyte (HaCaT) cell line (Gift from David Gram Naym at Bispebjerg Hospital, Denmark), a human liver cancer cell line (HepG2; ATCC HB-8065) and a human epithelial cervical cancer cell line (HeLa; ATCC CCL-2) were cultured to ∼90% confluence after 21–25 h of growth under standard conditions (5% CO2 at 37 °C). Cells were cultured in Dulbecco’s Modified Eagle’s Medium supplemented with 10% (v/v) fetal bovine serum (FBS). All culture media were supplemented with penicillin (100 IU/mL) and streptomycin (100 μg/mL). All cell media and supplements were obtained from Sigma-Aldrich (St. Louis, MO, United States). The 96-well plates were supplied by Corning Costar (Sigma-Aldrich, Brøndby, Denmark). Cell viability assessment was performed on cell monolayers grown to ∼90% confluence in 96-well plates by using the MTS/PMS assay as previously described. Briefly, the adhered cells were washed with PBS solution (37 °C) (ThermoFisher Scientific, Roskilde) and exposed for 1 h at 37 °C to 100 μL of peptides dissolved in the medium also used for culturing of the cell line (at concentrations in the range 0–1,000 μg/mL). The cells were subsequently washed twice with 37 °C PBS and then 100 μL of an MTS/PMS solution in media, consisting of 240 μg/mL MTS (Promega, Madison, WI, United States) and 2.4 mg/mL PMS (Promega, Madison, WI, United States), was added to the cells, which then were incubated for 1 h at 37 °C protected from light. A plate reader (SpectraMax i3X; Molecular devices, San Jose, CA) was used to measure the absorbance at 492 nm. The relative viability was calculated by using 0.2% (w/v) sodium dodecyl sulfate (SDS) as the positive control, while cells exposed to medium without test compound were used as the negative control.

HaCaT cells = assay type: cell-based, human; details: 1 h
Method: as §1

HeLa cells = assay type: cell-based, human; details: 1 h
Method: as §1

canine erythrocytes = test: in vitro; assay type: cell-based, dog
How it was run: (§2)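 Washed heparinized erythrocytes (~5 × 10^8 RBC/mL in PBS) incubated 1 h at 37 °C with peptides in serial 1:1 dilutions (150 to 1.2 µM final). Haemoglobin release read at 405 nm in supernatant; % haemolysis relative to 1% Triton X-100 (100%) and PBS diluent (0%).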

in vitro [1] = assay type: cell-based, dog; details: dog
How it was run: as §2

physchem = details: PBS
Method: (§3) To further address the actual correlation of the in vitro observations to an in vivo situation, three compounds were selected for animal studies. […] Peptides where chosen to include compounds with ranging antibacterial activity, residue composition, hydrophobicity and in vitro mammalian toxicity, deliberately excluding compounds too hydrophobic and too toxic (50% > lysis at 150 µM in vitro against rats and human). […] All the compounds were tested at the same concentrations 0, 0.01 and 1.0 mg/kg rat.
(§4) The compounds were formulated in sterile PBS (tablets, Medicago, Sweden), sonicated and sterile filtered through a Millex-GV filter (0.22 µm pore size, Ø 13 mm, Merck) before use. […] Doses were 0 (vehicle control), 0.01 and 1.0 mg/kg rat).

[2] = at in vivo dosing concentrations
Method: as §3, §4

Staphylococcus aureus = tested on: Staphylococcus aureus; parameters: method as in PMID 30842436; details: cited from earlier work
[3] = tested on: Staphylococcus pseudintermedius; details: cited from earlier work
bovine erythrocytes = test: in vitro; assay type: cell-based; details: bovine erythrocytes
How it was run: as §2

in vitro [4] = assay type: cell-based, bovine; details: bovine
How it was run: as §2

[5] = Dose-ranging intravenous toxicity study in rats; assay type: in vivo, rat (WistarHan); details: rat
Method: All animals were injected with a single dose of 0.5 mL (2 mL/kg body weight) and it was slowly administered over 2 min and 10 s. Shorter cationic tripeptides[4] and synthetic AMPs[72] have previously been evaluated employing the intravenous route. It was an interesting observation that the animals survived the systemic tail vein injection seemingly unaffected. This observation is in contrast to related synAMPs investigated as intravenous antibiotics which induced acute toxicity and paralysis at higher concentrations.

Pseudomonas aeruginosa = tested on: Pseudomonas aeruginosa; parameters: method as in PMID 30842436; details: cited from earlier work
in vitro [6] = assay type: cell-based, rat (Sprague–Dawley); details: Sprague-Dawley, rat
How it was run: as §2

rat erythrocytes = test: in vitro; assay type: cell-based, rat (Sprague–Dawley)
How it was run: as §2

human erythrocytes = test: in vitro; assay type: cell-based
How it was run: as §2

in vitro [7] = assay type: cell-based, human; details: human
How it was run: as §2

CC(C)C[C@@H](NC(=O)[C@H](CCCCN)NC(=O)[C@H](CCCCN)NC(=O)[C@@H](N)CCCCN)C(=O)N[C@H](Cc1cccc2ccccc12)C(=O)N[C@H](Cc1ccccc1)C(=O)N[C@H](Cc1cccc2ccccc12)C(N)=O [Compound 11, Lys-Lys-Lys-Leu-(1-Nal)Ala-Phe-(1-Nal)Ala] (HELM PEPTIDE1{K.K.K.[dL].[O=C([C@@H](Cc1cccc2ccccc12)N[*:1])[*:2]].[dF].[O=C([C@@H](Cc1cccc2ccccc12)N[*:1])[*:2]].[am]}$$$$V2.0)
IC50 (HepG2 cells): 233 µM | IC50 (HaCaT cells): 517 µM | IC50 (HeLa cells): 233 µM | IC10 haemolysis (canine erythrocytes; canine erythrocytes): 30.4 µM | IC50 (canine erythrocytes; red cells of canine): > 150 µM | hemolysis at 1 h, 150 µM (in vitro [1]): 40.7% | solubility (physchem): 1000 µg/mL (≈ 947 µM) | Solubility in PBS (in words) [2]: required mild heating and sonication at the highest concentration | MIC against Staphylococcus aureus (Staphylococcus aureus): 8 µg/mL (≈ 7.57 µM) | S.p. MIC ([3]; Staphylococcus pseudintermedius, Table S5, in µM): 1.9 µM | MIC against Staphylococcus pseudintermedius [3]: 2 µg/mL (≈ 1.89 µM) | IC10 haemolysis (bovine erythrocytes): 89.2 µM | hemolysis at 1 h, 150 µM (in vitro [4]): 17.4% | Maximal serum concentration (calculated from dose) ([5]; 1 mg/mL in PBS injected, assuming 17 mL blood volume for a 250 g rat): 15 µM | Whole blood haemolysis in vivo ([5]; in vivo, iv): not observed in vivo | MIC against Pseudomonas aeruginosa (Pseudomonas aeruginosa): 8 µg/mL (≈ 7.57 µM) | hemolysis at 1 h, 150 µM (in vitro [6]): 11.3% | IC10 haemolysis (rat erythrocytes; rat erythrocytes): 128.2 µM | IC50 (rat erythrocytes; red cells of rat): > 150 µM | IC10 haemolysis (human erythrocytes; human erythrocytes): 32.8 µM | IC50 (human erythrocytes; red cells of human): > 150 µM | hemolysis at 1 h, 150 µM (in vitro [7]): 33.3%
